These results are taken from ChEMBL document CHEMBL1201862, “PubChem BioAssay data set” (2004).

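A five-concentration, 48-hour dose response in 96-well plates underlies each endpoint, interpolated linearly between surrounding concentrations. Abbreviation: GI50, concentration required for 50% inhibition of growth.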 Active and inactive are the calls of the source. Cut-off read from the data, not from the text of the source: active = GI50 up to about 1.1 µM and inactive = higher.

Test systems include DLD-1; DMS-114; KM-20L2; LXFL 529; M19-MEL; SNB-78; XF498; HOP-18; RXF 631.
Holding throughout (experiment): growth of human tumour cells (NCI), 48 h

On to `N=c1oc2c(O)c(O)ccc2cc1C(N)=O`, for which the GI50 is > 100 µM (inactive) in the assay on DLD-1; 35.4 µM (inactive) in the assay on DMS-114; > 100 µM (inactive) in the assay with KM-20L2; 31.6 µM (inactive) with LXFL 529; 21.3 µM (inactive) in the assay with M19-MEL; > 100 µM (inactive) in the assay on SNB-78. The GI50 in the assay on XF498 is 25.2 µM (inactive).
In the case of `COc1cc2c3c(c1OC)C(=O)C=C3N(S(=O)(=O)c1ccc(C)cc1)CC2`, the GI50 in the assay on DLD-1, in the assay with DMS-114, in the assay with HOP-18, with KM-20L2, in the assay on LXFL 529 and in the assay with M19-MEL was > 100 µM (inactive) each time. The values for the GI50 in the assay with SNB-78 and with XF498 were > 100 µM (inactive) and 72.9 µM (inactive), respectively.
`CN1C(=O)c2cccc3c([N+](=O)[O-])ccc(c23)C1=O`: the GI50 in the assay with DLD-1 was 2.82 µM (inactive); with DMS-114, 4.1 µM (inactive); in the assay with HOP-18, 17.1 µM (inactive); with KM-20L2, 5.7 µM (inactive); with LXFL 529, 1.46 µM (inactive); in the assay on M19-MEL it was 10.4 µM (inactive). Besides, the GI50 in the assay with RXF 631 is 2.58 µM (inactive); with SNB-78, 14 µM (inactive).
`C#CCSc1nc(N)c2ncn(C3OC(COP(=O)(O)O)C(O)C3O)c2n1` (stereo not drawn): the GI50 in the assay on DLD-1, in the assay with HOP-18, with KM-20L2, in the assay on M19-MEL, with SNB-78 and with XF498 was > 239 µM (inactive) each time.
Regarding `O=C(O)/C=C/n1c2ccccc2c(=O)c2ccccc21`, the GI50 in the assay with DLD-1, in the assay with DMS-114, in the assay on KM-20L2, with M19-MEL, with RXF 631 and with SNB-78 was > 100 µM (inactive) each time. In addition, the GI50 with XF498 was > 100 µM (inactive).
`Nc1ccc(C2=Nc3ccccc3SC(c3ccccc3O)C2)cc1` (stereo not drawn): the GI50 with DLD-1 was 34.1 µM (inactive); in the assay with DMS-114 it was 15.7 µM (inactive); with HOP-18, > 100 µM (inactive); in the assay with KM-20L2, > 100 µM (inactive); in the assay with LXFL 529 it was 22 µM (inactive); in the assay on M19-MEL, 50 µM (inactive). Further, the GI50 is 68.2 µM (inactive) with RXF 631 and 16.3 µM (inactive) in the assay on XF498.
Turning to `Nc1ncnc2c1ncn2C1OC(CSC(F)F)C(O)C1O` (stereo not drawn), the GI50 with DLD-1, in the assay on DMS-114, in the assay on HOP-18, with KM-20L2, with LXFL 529 and in the assay with RXF 631 was > 100 µM (inactive) throughout. The GI50 in the assay on SNB-78 is > 100 µM (inactive).
For `CC(=O)Nc1ccc(C(=O)NN2C(=O)C(Cl)C2c2ccc([N+](=O)[O-])cc2)cc1` (stereo not drawn), the GI50 in the assay on KM-20L2, with LXFL 529, in the assay with M19-MEL, in the assay with SNB-78 and in the assay on XF498 was > 100 µM (inactive) in each case.
For the compound `NC(CCC(=O)NC(CSC(=O)N(O)c1ccccc1)C(=O)NCC(=O)O)C(=O)O` (stereo not drawn), the GI50 in the assay on DLD-1, in the assay on DMS-114, in the assay with KM-20L2, in the assay on LXFL 529, in the assay on M19-MEL and with SNB-78 was > 1000 µM (inactive) throughout.
`CCOC(=O)C1C(=O)C(=O)N2CCc3c([nH]c4ccccc34)C12` (stereo not drawn): the GI50 with DLD-1, with DMS-114, in the assay on KM-20L2, with LXFL 529 and in the assay on M19-MEL was > 100 µM (inactive) each time.
Take `CCOC(=O)NC(=O)c1cn(CCN2CCNCC2)c(=O)[nH]c1=O`: the GI50 in the assay with DLD-1, in the assay on DMS-114, in the assay on HOP-18, with LXFL 529, in the assay on M19-MEL and in the assay with SNB-78 was > 100 µM (inactive) throughout. Moreover, in the assay on XF498, the GI50 is > 100 µM (inactive).
Regarding `CCOc1ccc2nc(NC(=O)C(=O)C(C#N)CC(C)(C)C=O)sc2c1` (stereo not drawn), the GI50 in the assay on DLD-1 was > 100 µM (inactive); in the assay with DMS-114 it was 35.6 µM (inactive); in the assay with HOP-18 it was > 100 µM (inactive); in the assay on KM-20L2, > 100 µM (inactive); in the assay with LXFL 529, > 100 µM (inactive); in the assay on M19-MEL, 61.2 µM (inactive). For the same compound, the GI50 with RXF 631, in the assay with SNB-78 and with XF498 was > 100 µM (inactive) throughout.
`C[N+]1(C)C/C(=C\c2ccc(O)cc2)C(=O)/C(=C/c2ccc(O)cc2)C1`: the GI50 in the assay with DLD-1 was 49.7 µM (inactive); with DMS-114, 21.4 µM (inactive); in the assay on HOP-18 it was > 100 µM (inactive); with KM-20L2 it was 61.4 µM (inactive); in the assay on LXFL 529 it was 60.5 µM (inactive); in the assay on M19-MEL it was > 100 µM (inactive). In the assay on SNB-78, the GI50 is > 100 µM (inactive).
As for `C=C(CN(C)C)C(=O)c1ccc(C)cc1C`, the GI50 with DLD-1 was 3.88 µM (inactive); in the assay on DMS-114, 21.6 µM (inactive); in the assay on HOP-18, 16 µM (inactive); with KM-20L2 it was 19.9 µM (inactive); in the assay with LXFL 529, 12.5 µM (inactive); with M19-MEL, 18.7 µM (inactive). Moreover, the GI50 in the assay on RXF 631 was 20.4 µM (inactive); with SNB-78 it was 22.9 µM (inactive); in the assay on XF498, 12 µM (inactive).
On to `COc1ccc(CNc2cnc3cc(N)ccc3n2)cc1OC`, for which the GI50 with DLD-1, in the assay with DMS-114 and with M19-MEL was > 100 µM (inactive) in each case.
As to `Cc1cn(C2CC(CCCO)C(CO)O2)c(=O)[nH]c1=O` (stereo not drawn), the GI50 with DLD-1, in the assay on DMS-114, with KM-20L2, with LXFL 529, in the assay with M19-MEL and with XF498 was > 100 µM (inactive) each time.
As to `Cc1c(C(=O)c2ccccc2C(=O)O)c2ccccc2n1C`, the GI50 with DLD-1, in the assay with DMS-114, in the assay with KM-20L2, in the assay with LXFL 529, in the assay on M19-MEL and in the assay on SNB-78 was > 100 µM (inactive) throughout. Further, the GI50 in the assay with XF498 is > 100 µM (inactive).
For `CC(C)(C)C#COC(=O)c1ccccc1`, the GI50 with DLD-1, in the assay on DMS-114, in the assay on KM-20L2, with LXFL 529, in the assay on M19-MEL and in the assay with SNB-78 was > 100 µM (inactive) throughout.
Regarding `FC(F)(F)c1ccc2nc(NCc3ccccc3)c(-c3ccccc3)nc2c1`, the GI50 in the assay with HOP-18 was 35.4 µM (inactive); in the assay on KM-20L2, 29.5 µM (inactive); with LXFL 529, 43.3 µM (inactive); with M19-MEL it was 32.1 µM (inactive); in the assay on SNB-78, 38.9 µM (inactive); in the assay on XF498, 15.1 µM (inactive).
Turning to `Cc1ccc(/C=C(\C#N)c2ccccc2)cc1`, the GI50 with DLD-1, in the assay with DMS-114, in the assay with HOP-18, with KM-20L2, in the assay with LXFL 529 and with M19-MEL was > 100 µM (inactive) in each case. For the same compound, the GI50 in the assay on SNB-78 is > 100 µM (inactive).
`CCOC(=O)[C@H]1Nc2ccc(Cl)cc2[C@H]2CCC[C@@H]12`: the GI50 in the assay on DLD-1 is > 100 µM (inactive); in the assay on DMS-114, 95.3 µM (inactive); in the assay with HOP-18 it was 53.2 µM (inactive); with KM-20L2, > 100 µM (inactive); with LXFL 529, > 100 µM (inactive); with M19-MEL, > 100 µM (inactive). Also, the GI50 in the assay on SNB-78 and in the assay on XF498 was > 100 µM (inactive) in each case.
As to `CN(C)CC/C(=N\Nc1c(F)c(F)c(F)c(F)c1F)c1ccccc1`, the GI50 in the assay with DLD-1 is 8.63 µM (inactive); with DMS-114, 25.5 µM (inactive); in the assay with HOP-18, 23.6 µM (inactive); in the assay on KM-20L2, 35.6 µM (inactive); in the assay on LXFL 529, 42.3 µM (inactive); in the assay on M19-MEL it was 70.1 µM (inactive). For the same compound, in the assay with SNB-78, the GI50 was 41.1 µM (inactive).
Consider `C[C@H]1[C@H](C)CC[C@]2(C(=O)O)CCC3(COC(=O)/C=C/c4ccc(O)cc4)C(=CCC4[C@@]5(C)CC[C@H](O)C(C)(C)C5CC[C@]43C)[C@H]12` (stereo partly drawn), for which the GI50 is 3.39 µM (inactive) with DLD-1; 3.72 µM (inactive) in the assay on DMS-114; 18.3 µM (inactive) in the assay with HOP-18; 4.83 µM (inactive) in the assay on KM-20L2; 3.83 µM (inactive) in the assay with LXFL 529; 22.3 µM (inactive) in the assay with M19-MEL. Moreover, the figures for the GI50 with RXF 631 and in the assay on SNB-78 were 7.55 µM (inactive) and 43.8 µM (inactive), respectively.
In the case of `CC(=O)OC1C[C@H]2C(OC(=O)c3ccccc3)C3C4(OC(C)=O)COC4C[C@H](OC(C)=O)[C@@]3(C)C(OC(C)=O)[C@H](OC(C)=O)C(=C1C)C2(C)C` (stereo partly drawn), the GI50 with DLD-1 is 32.7 µM (inactive); in the assay with DMS-114 it was 22.2 µM (inactive); with HOP-18, 20.1 µM (inactive); in the assay on KM-20L2 it was 59 µM (inactive); with LXFL 529, 22.3 µM (inactive); in the assay on M19-MEL, 57.9 µM (inactive). The results for the GI50 in the assay with SNB-78 and with XF498 were 37.9 µM (inactive) and 19.8 µM (inactive), respectively.
For `CC(C)C(CCOS(=O)(=O)O)CCC(C)[C@H]1[C@@H](O)C(O)C2[C@]3(O)C[C@@H](O)C4(O)C[C@@H](O)CC[C@]4(C)C3CC[C@@]21C` (stereo partly drawn), the GI50 with DLD-1, in the assay on DMS-114, in the assay on HOP-18, with KM-20L2, with LXFL 529 and with M19-MEL was > 100 µM (inactive) throughout. The GI50 in the assay with SNB-78 and in the assay with XF498 was > 100 µM (inactive) each time.
In the case of `O=C1c2ccsc2C(=O)c2sc(CO)cc21`, the GI50 with DLD-1 was 0.176 µM (active); in the assay on HOP-18, 0.0349 µM (active); in the assay on KM-20L2, 0.182 µM (active); in the assay with LXFL 529, 0.161 µM (active); in the assay on SNB-78, 0.322 µM (active); in the assay with XF498, 0.352 µM (active).
`c1ccc2nc(-c3ccc4c(c3)OCO4)ccc2c1`: the GI50 in the assay with DMS-114 was 23.4 µM (inactive); with KM-20L2 it was 39.6 µM (inactive); in the assay with LXFL 529 it was 22.5 µM (inactive); in the assay with SNB-78 it was 77.6 µM (inactive).
